What follows are molecules tested against T1, Epidermal Growth Factor Receptor (EGFR) (Homo sapiens, UniProt P00533) (assay: EGFR kinase assay (TR-FRET)). Conditions: 10 μM ATP; read-out: EGFR kinase inhibition IC50.
T1 construct: purchased Sigma-Aldrich E3641
T1 sequence (P00533 25-1210): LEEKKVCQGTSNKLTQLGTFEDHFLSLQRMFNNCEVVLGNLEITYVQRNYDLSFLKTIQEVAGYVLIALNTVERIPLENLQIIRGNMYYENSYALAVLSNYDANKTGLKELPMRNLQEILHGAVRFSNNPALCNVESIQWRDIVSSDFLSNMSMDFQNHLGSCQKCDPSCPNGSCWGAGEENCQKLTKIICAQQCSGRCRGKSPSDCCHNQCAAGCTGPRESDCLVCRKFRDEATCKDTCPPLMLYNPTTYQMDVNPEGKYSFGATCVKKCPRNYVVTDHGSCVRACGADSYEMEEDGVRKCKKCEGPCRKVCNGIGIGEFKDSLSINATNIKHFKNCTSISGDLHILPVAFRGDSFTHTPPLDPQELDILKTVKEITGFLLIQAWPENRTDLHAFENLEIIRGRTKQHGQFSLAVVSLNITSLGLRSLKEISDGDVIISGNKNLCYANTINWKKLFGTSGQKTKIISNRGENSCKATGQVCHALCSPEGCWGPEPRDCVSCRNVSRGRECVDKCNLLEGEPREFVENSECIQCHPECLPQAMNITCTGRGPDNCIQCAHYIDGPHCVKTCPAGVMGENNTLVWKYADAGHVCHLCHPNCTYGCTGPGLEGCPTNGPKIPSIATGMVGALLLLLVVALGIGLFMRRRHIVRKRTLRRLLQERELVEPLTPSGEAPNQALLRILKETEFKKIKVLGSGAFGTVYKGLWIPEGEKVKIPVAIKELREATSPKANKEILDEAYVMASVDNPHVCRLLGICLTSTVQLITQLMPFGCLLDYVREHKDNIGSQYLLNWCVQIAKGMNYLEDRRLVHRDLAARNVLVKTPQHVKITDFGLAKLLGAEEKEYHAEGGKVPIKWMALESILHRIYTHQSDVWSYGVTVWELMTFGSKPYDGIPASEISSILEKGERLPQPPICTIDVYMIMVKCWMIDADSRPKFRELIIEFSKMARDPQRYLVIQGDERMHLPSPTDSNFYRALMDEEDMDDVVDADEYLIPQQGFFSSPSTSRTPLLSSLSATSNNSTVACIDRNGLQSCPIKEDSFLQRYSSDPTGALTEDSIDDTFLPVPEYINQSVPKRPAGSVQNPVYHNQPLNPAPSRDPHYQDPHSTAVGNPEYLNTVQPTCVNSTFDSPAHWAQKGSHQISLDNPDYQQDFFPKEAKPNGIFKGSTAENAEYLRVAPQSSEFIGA
Type: biochemical
Source text: EGFR inhibitory activity of compounds of the present invention was quantified employing the TR-FRET based EGFR assay as described in the following paragraphs.
Epidermal Growth Factor Receptor (EGFR) affinity purified from human carcinoma A431 cells (Sigma-Aldrich, # E3641) was used as kinase. As substrate for the kinase reaction the biotinylated peptide biotin-Ahx-[…] (SEQ ID NO: 8, C-terminus in amid form) was used which can be purchased e.g. form the company Biosyntan GmbH (Berlin-Buch, Germany).
For the assay 50 nL of a 100 fold concentrated solution of the test compound in DMSO was pipetted into a black low volume 384 well microtiter plate (Greiner Bio-One, Frickenhausen, Germany), 2 μL of a solution of EGFR in aqueous assay buffer [50 mM Hepes/HCl pH 7.0, 1 mM MgCl2, 5 mM MnCl2, 0.5 mM activated sodium ortho-vanadate, 0.005% (v/v) Tween-20]were added and the mixture was incubated for […] at 22° C. to allow pre-binding of the test compounds to the enzyme before the start of the kinase reaction. Then the kinase reaction was started by the addition of 3 μL of a solution of adenosine-tri-phosphate (ATP, 16.7 μM=>final conc. in the 5 μL assay volume is 10 μM) and substrate (1.67 μM =>final conc. in the 5 μL assay volume is 1μM) in assay buffer and the resulting mixture was incubated for a reaction time of […] at 22° C. The concentration of EGFR was adjusted depending of the activity of the enzyme lot and was chosen appropriate to have the assay in the linear range, typical concentration were about 3 U/ml. The reaction was stopped by the addition of 5 μl of a solution of HTRF detection reagents (0.1 μM streptavidine-XL665 [Cis Biointernational]and 1 nM PT66-Tb-Cryptate, an terbium-cryptate labelled anti-phospho-tyrosine antibody from Cis Biointernational [instead of the PT66-Tb-cryptate PT66-Eu-Chelate from Perkin Elmer can also be used]) in an aqueous EDTA-solution (80 mM EDTA, 0.2% (w/v) bovine serum albumin in 50 mM HEPES pH 7.5).
The resulting mixture was incubated 1 h at 22° C. to allow the binding of the biotinylated phosphorylated peptide to the streptavidine-XL665 and the PT66-Eu-Chelate. Subsequently the amount of phosphorylated substrate was evaluated by measurement of the resonance energy transfer from the PT66-Tb-Cryptate to the streptavidine-XL665. Therefore, the fluorescence emissions at 620 nm and 665 nm after excitation at 337 nm were measured in a HTRF reader, e.g. a Pherastar (BMG Labtechnologies, Offenburg, Germany) or a Viewlux (Perkin-Elmer). The ratio of the emissions at 665 nm and at […] was taken as the measure for the amount of phosphorylated substrate.
Work on `CC(=O)N[C@@H]1CCN(c2cc3c(NC(C)c4ccc(-c5ccccc5CN(C)C)s4)nc(C)nc3cn2)C1` (single isomer, unassigned) [Example 79] yielded an IC50 of over 20 µM. `CC(=O)N[C@@H]1CCN(c2cc3c(NC(C)c4ccc(-c5ccccc5CN(C)C)s4)nc(C)nc3cn2)C1` (single isomer, unassigned) [Example 80] gave an IC50 of over 20 µM. Work on `CC(=O)N[C@H]1CCN(c2cc3c(NC(C)c4ccc(-c5ccccc5CN(C)C)s4)nc(C)nc3cn2)C1` (single isomer, unassigned) [Example 81] yielded an IC50 of over 20 µM. In the case of `CC(=O)N[C@H]1CCN(c2cc3c(NC(C)c4ccc(-c5ccccc5CN(C)C)s4)nc(C)nc3cn2)C1` (single isomer, unassigned) [Example 82], the IC50 is reported as over 20 µM.

— US20220274979A1 (Bayer Pharma Aktiengesellschaft, priority 2018, published 2022)
